This is an account of results in ChEMBL document CHEMBL1201862, “PubChem BioAssay data set” (2004).

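Protocol summary: plate cells (96-well), add compound at 5 concentrations, incubate 48 h, interpolate endpoints linearly. The concentration for 50% growth inhibition is given as GI50.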 Active and inactive are the calls of the source. Cut-off read from the data, not from the text of the source: active = GI50 up to about 1.1 µM and inactive = higher. A value given as a limit tells only on which side of the number the result lay.

Common to all, as to assay: NCI-60 cell line screen, 48 h
Assay [1] has as its system M14.
Assay [2] has as its system CCRF-CEM.
Assay [3] has as its system Malme-3M.
Assay [4] has as its system KM12.
The test system of assay [5] is HCT-116.
The subject of assay [6] is UACC-62.
For assay [7], the system named is CAKI-1.
Assay [8] deals with SNB-19.
Assay [9] has as its system IGROV-1.
Assay [10] relates to UO-31.
The subject of assay [11] is HOP-62.
Assay [12] deals with HT-29.
Assay [13] has as its system HCT-15.
For assay [14], the system named is TK-10.
The subject of assay [15] is A498.

As for `O=C1OC(=O)C2C1C1(c3ccccc3)OC2(c2ccccc2)c2c(Br)c(Br)c(Br)c(Br)c21` (stereo not drawn), the GI50 in [1], in assay [2], in assay [3], in assay [4], in assay [5] and in assay [6] was > 100 µM (inactive) throughout. Also, the GI50 in [7], in assay [8], in assay [9], in assay [10], in assay [11] and in assay [12] was > 100 µM (inactive) in each case. Besides, the results for the GI50 in [13], in assay [14] and in assay [15] were over 100 µM, > 100 µM (inactive) and > 100 µM (inactive), respectively.
Regarding `COc1ccc2[nH]c3c(c2c1)CCN(C)CC3`, the GI50 in assay [1], in assay [2], in assay [3], in assay [4], in assay [5] and in assay [6] was > 100 µM (inactive) in each case. Besides, the GI50 in [7] is > 100 µM (inactive); in assay [8] it was > 100 µM (inactive); in [9], > 100 µM (inactive); in assay [11], > 100 µM (inactive); in assay [12], > 100 µM (inactive); in assay [13] it was over 100 µM. The GI50 in assay [14] and in assay [15] was > 100 µM (inactive) throughout.
Consider `O=C(O)c1cc(=O)c2[nH]c3ccccc3c2s1`, for which the GI50 in assay [1], in assay [2], in assay [3], in [4], in [6] and in assay [7] was > 100 µM (inactive) in each case. For the same compound, the GI50 was > 100 µM (inactive) in [8]; > 100 µM (inactive) in [9]; > 100 µM (inactive) in assay [10]; > 100 µM (inactive) in assay [11]; over 100 µM in assay [13]; > 100 µM (inactive) in assay [14].
On to `O=C1OC(c2ccccc2)=N/C1=C/NC(CO)C(=O)O` (stereo not drawn), for which the GI50 in assay [1], in [2], in [3], in assay [4], in [5] and in assay [6] was > 100 µM (inactive) throughout. The GI50 in assay [7] was > 100 µM (inactive); in [8], 48.9 µM (inactive); in [9], 67.1 µM (inactive); in assay [10] it was > 100 µM (inactive); in [11] it was > 100 µM (inactive); in assay [12], > 100 µM (inactive). For the same compound, the GI50 was over 100 µM in [13], > 100 µM (inactive) in assay [14] and > 100 µM (inactive) in assay [15].
With `CC(=O)O/N=C(/C)c1ccccc1O`, the GI50 in assay [1], in assay [2], in [3], in [4], in [5] and in assay [6] was > 100 µM (inactive) in each case. For the same compound, the GI50 in assay [7], in assay [8], in [9], in assay [10], in [11] and in assay [12] was > 100 µM (inactive) throughout. For the same compound, the GI50 in assay [14] is > 100 µM (inactive).
As to `Cc1ccc(S(=O)(=O)Nc2ccccc2C(C)(C)C)cc1`, the GI50 in [1] is > 10 µM (inactive); in assay [2], 21.4 µM (inactive); in [3] it was 30.6 µM (inactive); in assay [4], 17.2 µM (inactive); in [5], 15.2 µM (inactive); in assay [6] it was 16.1 µM (inactive). Further, the GI50 is 18.7 µM (inactive) in [7]; 30.7 µM (inactive) in assay [9]; 18.6 µM (inactive) in assay [10]; 20 µM (inactive) in assay [11]; 16.2 µM (inactive) in [12]; 20.7 µM in [13]. Further, the GI50 was 37.1 µM (inactive) in [14] and 24 µM (inactive) in assay [15].
